From US20100298371A1, “PROCESS FOR PREPARING CHEMICALLY AND CHIRALLY PURE SOLIFENACIN BASE AND ITS SALTS” (priority 2007, published 2010) come the findings set out here.

Counter-ions that a name gives are not always drawn. Like-named read-outs stand apart in the source and are kept apart here.

Data set [1] can be described thus: Pharmacokinetic profile of Solifenacin salts in fasted male Wistar rats. Format: in vivo. Particulars: for absorption / rate of absorption: compared to the succinate salt.
A short description of data set [2]: Stability study on storage (40° C. ± 2° C./75% ± 5% RH). Format: physicochemical. Here is the method:
The complete x-ray powder spectrum, was recorded with a Rigaku D/Max 2200 VPC X-ray powder diffractometer model using copper radiation. The X-ray diffraction pattern was recorded by keeping the instrument parameters as below: • X-ray: Cu/40 kv/30 mA, Diverging slit: 1°, Scattering slit: 1°, Receiving slit: 0.15 mm, Monochromator RS: 0.8 mm, Counter: Scintillation counter,
Solifenacin base and its salts were analyzed for purity by analytical HPLC at λ^max 220 nm using column J'sphere-ODS, 150 mm×4.6 mm×4μ or its equivalent on AGILENT 1100 series under the following conditions, • Detector: UV absorption photometer Wave length: 220 nm Column temp.: 30° C. • Flow rate: 1.0 mL/min. Injection Vol.: 5 μL • Mobile Phase (gradient elution): 0.05 TFA buffer in water:Acetonitrile
Several of the Solifenacin salts prepared according to the present invention has chemical and polymorphic stability on storage.

Data set [3] in a line: Intrinsic dissolution rate of various salts of Solifenacin. Format: physicochemical.
The mark [4] stands for this setting: Table 3b, fasted male Wistar rats, dose 30 mg/kg, mean.
The mark [5] stands for this setting: After 3 Month at 40° C. ± 2° C./75% ± 5% RH.
[6] abbreviates: Table 3a, fasted male Wistar rats, dose 30 mg/kg, mean.
[7] abbreviates: Table 3b, fasted male Wistar rats, dose 30 mg/kg, mean, hydrochloride salt.
Where [8] appears, read: Table 3b, fasted male Wistar rats, dose 30 mg/kg, mean, succinate salt.
[9] abbreviates: fasted male Wistar rats, ratio to succinate.

With `O=C(O[C@H]1CN2CCC1CC2)N1CCc2ccccc2[C@@H]1c1ccccc1.O=C1O[C@H]([C@@H](O)CO)C(O)=C1O` [Solifenacin Ascorbate], in data set [1] (setting [4]), the “AUC (0-inf)” value is 96.99 ng·h/mL; the “AUC (0-t)” value is 85.66 ng·h/mL; the Cmax (usually the peak of the concentration-time curve) is 29.04 ng/mL; the time to peak (Tmax) – broadly, the time at which the peak concentration occurs – is 1.30 h. For the same compound, the “absorption / rate of absorption” value in data set [1] (in words) is “faster”. Also, in data set [1] (relative to succinate), the “better absorption than the succinate salt” value amounted to 20%.
Take `O=C(O)c1cc(O)ccc1O.O=C(O[C@H]1CN2CCC1CC2)N1CCc2ccccc2[C@@H]1c1ccccc1` [Solifenacin Gentisate, (+)-(1S,3′R)-quinuclidin-3′-yl 1-phenyl-1,2,3,4-tetrahydro-isoquinoline-2-carboxylate gentisate salt]: in data set [2] (setting [5]), the Description entry was “Off white colored”, the “Polymorphism XRD” value is given as “No Change”, the “Purity (By HPLC)” value was found to be 99.46% and the “Water (by KFR)” value is on record as 0.29%. For the same compound, in data set [2] (Initial), the Description entry is recorded as “Off white colored powder”, the “Polymorphism XRD” value was “Crystalline pattern”, the “Purity (By HPLC)” value stood at 99.63% and the “Water (by KFR)” value was found to be 0.16%. Moreover, in data set [3] (pH 1.2 HCl), the Intrinsic dissolution rate stood at 6.845 mg/min · cm^2. Further, the Intrinsic dissolution rate in data set [3] (pH 4.5 Acetate Buffer) was 0.2356 mg/min · cm^2. Besides, the Intrinsic dissolution rate in data set [3] (pH 6.8 Phosphate Buffer) was found to be 0.4932 mg/min · cm^2. Moreover, in data set [1] (setting [6]), the “AUC (0-inf)” value was determined as 74.19 ng·h/mL, the “AUC (0-t)” value was 58.97 ng·h/mL, the maximum concentration (Cmax) came out at 30.66 ng/mL and the time of peak concentration (Tmax) was 1.70 h. In data set [1] (setting [4]), the “AUC (0-inf)” value came out at 74.19 ng·h/mL, the “AUC (0-t)” value amounted to 58.97 ng·h/mL, the Cmax was determined as 30.66 ng/mL and the Tmax stood at 1.70 h. Further, the “peak plasma concentrations compared with Solifenacin succinate” value in data set [1] (in words) is given as “comparable”.
As for `O=C(O[C@H]1CN2CCC1CC2)N1CCc2ccccc2[C@@H]1c1ccccc1` [Solifenacin Hydrobromide, Solifenacin hydrobromide], the Tmax in data set [1] (Table 3b, fasted male Wistar rats, dose 30 mg/kg, mean, hydrobromide) was determined as 1.27 h. For the same compound, the AUC (0-inf) in data set [1] (male, Wistar, rat, plasma, 30 mg/kg, Table 3b, fasted male Wistar rats, dose 30 mg/kg, mean, read-out: AUC (0-inf)) came out at 74 ng·h/mL. For the same compound, the AUC (0-t) in data set [1] (male, Wistar, rat, plasma, 30 mg/kg, Table 3b, fasted male Wistar rats, dose 30 mg/kg, mean, read-out: AUC (0-t)) amounted to 59.9 ng·h/mL. Moreover, the highest concentration (Cmax) in data set [1] (male, Wistar, rat, plasma, 30 mg/kg, Table 3b, fasted male Wistar rats, dose 30 mg/kg, mean, read-out: Cmax) is 14.1 ng/mL.
Take `O=C(O[C@H]1CN2CCC1CC2)N1CCc2ccccc2[C@@H]1c1ccccc1` [Solifenacin Hydrochloride, (+)-(1S,3′R)-quinuclidin-3′-yl 1-phenyl-1,2,3,4-tetrahydro-isoquinoline-2-carboxylate hydrochloride salt]: the Description entry is recorded as “Off white colored” in data set [2] (setting [5]) and “Off white colored powder” in data set [2] (Initial). Also, the “Polymorphism XRD” value in data set [2] (setting [5]) is on record as “No Change”; in data set [2] (Initial), “Crystalline pattern”. In addition, the “Purity (By HPLC)” value is given as 99.6% in data set [2] (setting [5]) and 99.54% in data set [2] (Initial). The figures for the “Water (by KFR)” value in data set [2] (setting [5]) and in data set [2] (Initial) were 0.32% and 0.14%, respectively. In addition, the Intrinsic dissolution rate was found to be 6.6836 mg/min · cm^2 in data set [3] (pH 1.2 HCl, listed as HCl, hydrochloride salt); 21.08 mg/min · cm^2 in data set [3] (pH 4.5 Acetate Buffer, listed as HCl, hydrochloride salt); 20.262 mg/min · cm^2 in data set [3] (pH 6.8 Phosphate Buffer, listed as HCl, hydrochloride salt). For the same compound, the “AUC (0-inf)” value worked out at 59.52 ng·h/mL in data set [1] (setting [7]) and 158 ng·h/mL in data set [1] (male, Wistar, rat, plasma, 30 mg/kg, Table 3a, fasted male Wistar rats, dose 30 mg/kg, mean, read-out: AUC (0-inf)). The “AUC (0-t)” value in data set [1] (setting [7]) came to 50.54 ng·h/mL; in data set [1] (male, Wistar, rat, plasma, 30 mg/kg, Table 3a, fasted male Wistar rats, dose 30 mg/kg, mean, read-out: AUC (0-t)), 147 ng·h/mL. The peak concentration (Cmax) in data set [1] (setting [7]) stood at 13.67 ng/mL; in data set [1] (male, Wistar, rat, plasma, 30 mg/kg, Table 3a, fasted male Wistar rats, dose 30 mg/kg, mean, read-out: Cmax), 94.4 ng/mL. Also, the Tmax in data set [1] (setting [7]) is 1.05 h; in data set [1] (male, Wistar, rat, plasma, 30 mg/kg, Table 3a, fasted male Wistar rats, dose 30 mg/kg, mean, read-out: Tmax) it was 0.6 h. The Vd in data set [1] (rat, plasma, Table 3a, fasted male Wistar rats, dose 30 mg/kg, mean, read-out: Vz) was found to be 1530 L.
Take `O=C(O[C@H]1CN2CCC1CC2)N1CCc2ccccc2[C@@H]1c1ccccc1` [Solifenacin Succinate, (+)-(1S,3′R)-quinuclidin-3′-yl 1-phenyl-1,2,3,4-tetrahydro-isoquinoline-2-carboxylate succinate salt, reference compound]: in data set [3] (pH 1.2 HCl, succinate salt), the Intrinsic dissolution rate was determined as 10.666 mg/min · cm^2. Moreover, the Intrinsic dissolution rate in data set [3] (pH 4.5 Acetate Buffer, succinate salt) stood at 9.845 mg/min · cm^2. Also, the Intrinsic dissolution rate in data set [3] (pH 6.8 Phosphate Buffer, succinate salt) is 11.002 mg/min · cm^2. In addition, in data set [1] (setting [8]), the “AUC (0-inf)” value worked out at 76.69 ng·h/mL, the “AUC (0-t)” value came to 60.09 ng·h/mL, the Cmax was 23.72 ng/mL and the time of peak concentration (Tmax) came to 2.67 h. Besides, the “Tmax (absorption, as stated in text)” value in data set [1] (text summary of Table 3b, fasted male Wistar rats, succinate salt) was 6.67 h.
Turning to “(+)-(1S,3′R)-quinuclidin-3′-yl 1-phenyl-1,2,3,4-tetrahydro-isoquinoline-2-carboxylate besylate salt [Solifenacin Besylate]”, in data set [1] (setting [4]), the “AUC (0-inf)” value was 49.27 ng·h/mL, the “AUC (0-t)” value was determined as 45.54 ng·h/mL, the maximum concentration (Cmax) is 12.84 ng/mL and the Kel amounted to 0.36 h⁻¹. Also, in data set [1] (setting [4]), the T1/2 worked out at 1.95 h and the Tmax worked out at 1.73 h.
As for “(+)-(1S,3′R)-quinuclidin-3′-yl 1-phenyl-1,2,3,4-tetrahydro-isoquinoline-2-carboxylate oxalate salt [Solifenacin Oxalate]”, in data set [2] (setting [5]), the Description result is given as “Off white colored”, the “Polymorphism XRD” value was “No Change”, the “Purity (By HPLC)” value is reported as 99.36% and the “Water (by KFR)” value is recorded as 0.33%. In data set [2] (Initial), the Description entry was “Off white colored powder”, the “Polymorphism XRD” value is reported as “Crystalline pattern”, the “Purity (By HPLC)” value was 99.49% and the “Water (by KFR)” value worked out at 0.18%. The Intrinsic dissolution rate in data set [3] (pH 1.2 HCl) was found to be 6.5822 mg/min · cm^2. In data set [3] (pH 4.5 Acetate Buffer), the Intrinsic dissolution rate was 6.5084 mg/min · cm^2. In addition, the Intrinsic dissolution rate in data set [3] (pH 6.8 Phosphate Buffer) worked out at 4.9096 mg/min · cm^2. In addition, in data set [1] (setting [6]), the “AUC (0-inf)” value was determined as 345.79 ng·h/mL, the “AUC (0-t)” value was found to be 321.28 ng·h/mL, the Cmax is reported as 252.38 ng/mL and the Kel stood at 0.26 h⁻¹. Also, in data set [1] (setting [6]), the T1/2 was 4.76 h and the time to peak (Tmax) was 0.37 h. For the same compound, in data set [1] (setting [4]), the “AUC (0-inf)” value was 78.78 ng·h/mL, the “AUC (0-t)” value came to 49.77 ng·h/mL, the maximum concentration (Cmax) was determined as 9.10 ng/mL and the Kel was 0.18 h⁻¹. In addition, in data set [1] (setting [4]), the T1/2 was 6.19 h and the Tmax was 1.62 h. In data set [1] (setting [9]), the “higher plasma concentration (Bio available, Cmax) compared to Solifenacin succinate salt” value was around 10 fold and the “higher plasma exposure compared to Solifenacin succinate salt” value came out at 5 times. In data set [1] (in words), the “T1/2 value compared to the succinate salt” value is “higher” and the “absorption / rate of absorption” value is “rapid absorption”.
With Solifenacin phosphate, in data set [1] (setting [4]), the “AUC (0-inf)” value was 57.63 ng·h/mL, the “AUC (0-t)” value was 50.58 ng·h/mL, the peak concentration (Cmax) was 12.63 ng/mL and the Kel is 0.29 h⁻¹. For the same compound, in data set [1] (setting [4]), the T1/2 worked out at 2.43 h and the Tmax worked out at 1.00 h.
